Measured values published in patent US20150087687A1 (priority 2012, published 2015).
Where two headings read alike, the source gives them in different places.

Legend:
cytochrome P450 2C19 = cytochrome P450 2C19 (Homo sapiens, UniProt P33261); assay: metabolism by cytochrome P450 2C19; format: in vitro ADME; conditions: by oxidation
[1] = tested on: Walker 256 carcino-sarcoma; conditions: in vivo; cited from earlier work
[2] = cited from earlier work
[3] = cited from earlier work; remark: listed apart in the source
NEK9 = NEK9 (Homo sapiens, UniProt Q8TD19); assay: targeting of kinases (FIG. 4): NEK9; format: binding
Sequence of NEK9 (Q8TD19 whole entry, species assumed): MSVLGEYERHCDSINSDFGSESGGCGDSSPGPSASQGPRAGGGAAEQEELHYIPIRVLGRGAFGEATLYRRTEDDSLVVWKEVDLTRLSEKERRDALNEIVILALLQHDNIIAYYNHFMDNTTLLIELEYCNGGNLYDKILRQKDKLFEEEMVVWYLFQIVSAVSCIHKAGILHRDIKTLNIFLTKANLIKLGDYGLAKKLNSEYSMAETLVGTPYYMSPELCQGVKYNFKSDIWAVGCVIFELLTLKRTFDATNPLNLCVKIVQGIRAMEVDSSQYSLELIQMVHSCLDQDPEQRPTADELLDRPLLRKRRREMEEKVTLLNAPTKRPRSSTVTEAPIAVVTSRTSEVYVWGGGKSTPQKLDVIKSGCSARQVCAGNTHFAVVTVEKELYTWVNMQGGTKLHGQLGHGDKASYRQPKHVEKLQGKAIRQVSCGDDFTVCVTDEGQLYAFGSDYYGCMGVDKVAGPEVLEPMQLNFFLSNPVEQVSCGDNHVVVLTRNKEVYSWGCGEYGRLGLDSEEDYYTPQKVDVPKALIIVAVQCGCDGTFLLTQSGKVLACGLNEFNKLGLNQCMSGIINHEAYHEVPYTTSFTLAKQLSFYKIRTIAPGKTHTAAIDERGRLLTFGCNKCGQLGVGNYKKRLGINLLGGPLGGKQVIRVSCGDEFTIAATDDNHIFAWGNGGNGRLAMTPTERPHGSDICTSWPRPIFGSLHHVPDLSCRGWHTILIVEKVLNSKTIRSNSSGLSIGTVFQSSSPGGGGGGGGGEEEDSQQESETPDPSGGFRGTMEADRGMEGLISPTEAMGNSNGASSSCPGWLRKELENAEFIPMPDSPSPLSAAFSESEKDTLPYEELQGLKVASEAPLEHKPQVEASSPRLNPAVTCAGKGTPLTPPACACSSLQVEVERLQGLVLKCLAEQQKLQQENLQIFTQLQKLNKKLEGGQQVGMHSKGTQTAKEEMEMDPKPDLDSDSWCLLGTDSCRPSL

primary AML cells = conditions: cited from earlier work
[4] = tested on: cell lines and primary cancer cells; conditions: cited from earlier work
ERBB3 = ERBB3 (Homo sapiens, UniProt P21860); assay: targeting of kinases (FIG. 4): ERBB3; format: binding
Sequence of ERBB3 (P21860 20-1342, species assumed): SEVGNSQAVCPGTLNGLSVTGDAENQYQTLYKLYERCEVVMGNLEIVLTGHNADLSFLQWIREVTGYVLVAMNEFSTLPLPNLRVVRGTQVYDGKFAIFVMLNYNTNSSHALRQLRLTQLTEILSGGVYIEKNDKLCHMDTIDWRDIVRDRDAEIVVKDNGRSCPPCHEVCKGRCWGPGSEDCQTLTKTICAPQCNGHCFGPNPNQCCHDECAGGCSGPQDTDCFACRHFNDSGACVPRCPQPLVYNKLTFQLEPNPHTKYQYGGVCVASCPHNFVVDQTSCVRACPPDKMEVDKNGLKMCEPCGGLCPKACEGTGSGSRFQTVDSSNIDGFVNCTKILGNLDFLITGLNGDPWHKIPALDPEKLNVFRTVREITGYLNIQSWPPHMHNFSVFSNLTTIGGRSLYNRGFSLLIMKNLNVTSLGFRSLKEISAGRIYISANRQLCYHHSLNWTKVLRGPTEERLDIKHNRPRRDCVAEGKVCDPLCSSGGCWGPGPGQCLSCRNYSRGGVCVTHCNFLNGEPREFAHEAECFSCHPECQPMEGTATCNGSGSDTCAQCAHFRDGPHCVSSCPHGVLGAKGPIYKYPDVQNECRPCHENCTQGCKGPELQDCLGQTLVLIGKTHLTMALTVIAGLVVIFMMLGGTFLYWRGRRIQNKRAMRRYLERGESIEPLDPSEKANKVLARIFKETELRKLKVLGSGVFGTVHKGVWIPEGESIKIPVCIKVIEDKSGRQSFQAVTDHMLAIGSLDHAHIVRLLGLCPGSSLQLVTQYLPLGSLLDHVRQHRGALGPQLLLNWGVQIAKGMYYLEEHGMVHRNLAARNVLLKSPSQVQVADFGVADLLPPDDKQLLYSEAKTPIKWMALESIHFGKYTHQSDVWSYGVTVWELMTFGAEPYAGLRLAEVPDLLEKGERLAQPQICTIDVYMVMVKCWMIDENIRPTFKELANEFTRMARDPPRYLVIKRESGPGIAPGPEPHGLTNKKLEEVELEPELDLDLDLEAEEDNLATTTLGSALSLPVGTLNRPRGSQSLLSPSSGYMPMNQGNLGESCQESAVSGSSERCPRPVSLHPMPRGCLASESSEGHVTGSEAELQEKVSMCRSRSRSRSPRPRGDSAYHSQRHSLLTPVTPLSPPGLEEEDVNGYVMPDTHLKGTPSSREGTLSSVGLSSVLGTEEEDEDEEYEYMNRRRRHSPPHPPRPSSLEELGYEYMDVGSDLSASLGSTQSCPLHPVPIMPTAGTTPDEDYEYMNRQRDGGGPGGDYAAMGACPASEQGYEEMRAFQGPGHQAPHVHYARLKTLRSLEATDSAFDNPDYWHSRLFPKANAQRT

K562 [5] = conditions: cited from earlier work
U937 = conditions: AML; cited from earlier work
K562 [6] = conditions: CML; cited from earlier work
[7] = rat; cited from earlier work
HUVEC [8] = conditions: antiangiogenic effects; cited from earlier work
HUVEC [9] = conditions: cited from earlier work
[10] = target: glycogen synthase kinase-3β (GSK-3β) (Homo sapiens, UniProt P49841); conditions: concentration at which inhibition is stated; cited from earlier work
Sequence of glycogen synthase kinase-3β (GSK-3β) (P49841 whole entry, species assumed): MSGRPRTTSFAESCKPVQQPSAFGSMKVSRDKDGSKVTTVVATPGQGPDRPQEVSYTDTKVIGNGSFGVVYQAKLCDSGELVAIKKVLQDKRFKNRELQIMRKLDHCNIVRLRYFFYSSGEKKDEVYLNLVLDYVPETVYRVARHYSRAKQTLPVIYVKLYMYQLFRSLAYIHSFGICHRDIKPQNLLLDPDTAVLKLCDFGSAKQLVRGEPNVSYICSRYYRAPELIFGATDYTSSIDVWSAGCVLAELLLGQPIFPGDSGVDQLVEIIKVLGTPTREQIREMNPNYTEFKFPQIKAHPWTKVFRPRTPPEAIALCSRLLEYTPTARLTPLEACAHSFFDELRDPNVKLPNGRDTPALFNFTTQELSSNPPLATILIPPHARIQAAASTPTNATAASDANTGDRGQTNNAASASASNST

primary AML = conditions: cited from earlier work
Jurkat cells = conditions: inducing phosphorylation of c-Myb; cited from earlier work
Bcl-2 = conditions: induces apoptosis; cited from earlier work
[11] = tested on: uridine glucuronyltransferases (UGT); assay: metabolism by uridine glucuronyltransferases; format: in vitro ADME; conditions: direct conjugation, without initial cytochrome P450 oxidation; more polar metabolites
[12] = tested on: HT-29 colorectal xenografts; conditions: mouse, in vivo; cited from earlier work
NB4 = conditions: AML; cited from earlier work
[13] = cited from earlier work; remark: listed apart in the source
AML NOD/SCID model = conditions: cited from earlier work
HL-60 = conditions: AML; cited from earlier work
[14] = tested on: human myeloblastic leukemic cells; conditions: cited from earlier work
microtubule assembly = conditions: cited from earlier work
ECV304 [15] = conditions: antiangiogenic effects; cited from earlier work
[16] = cited from earlier work; remark: listed apart in the source
[17] = tested on: malignant cell lines, particularly AML cell lines; assay: viability of cancer cell lines (Example 2); format: cell-based; conditions: 0.1-100 μM, 24 or 48 hours, FIG. 1-3
Experimental: Viability at 48 hours is shown by (♦); viability at 24 hours is shown by (▪).

ECV304 [18] = conditions: cited from earlier work
VEGF = conditions: antiangiogenic effects; cited from earlier work
[19] = tested on: HT-29 colorectal cell lines; conditions: cited from earlier work
AML cell lines = conditions: cited from earlier work
AML cells = AML cells (DKO insensitive to chemotherapy); cited from earlier work
mitochondria = conditions: effects on mitochondria; cited from earlier work
HL-60 myeloid cells = conditions: cited from earlier work
CD11b = conditions: promoting myeloid differentiation; cited from earlier work
cytochrome P450 1A2 [20] = target: T1, cytochrome P450 1A2 (Homo sapiens, UniProt P05177); assay: metabolism by cytochrome P450 1A2; format: in vitro ADME; conditions: by oxidation
T1 sequence (P05177 whole entry): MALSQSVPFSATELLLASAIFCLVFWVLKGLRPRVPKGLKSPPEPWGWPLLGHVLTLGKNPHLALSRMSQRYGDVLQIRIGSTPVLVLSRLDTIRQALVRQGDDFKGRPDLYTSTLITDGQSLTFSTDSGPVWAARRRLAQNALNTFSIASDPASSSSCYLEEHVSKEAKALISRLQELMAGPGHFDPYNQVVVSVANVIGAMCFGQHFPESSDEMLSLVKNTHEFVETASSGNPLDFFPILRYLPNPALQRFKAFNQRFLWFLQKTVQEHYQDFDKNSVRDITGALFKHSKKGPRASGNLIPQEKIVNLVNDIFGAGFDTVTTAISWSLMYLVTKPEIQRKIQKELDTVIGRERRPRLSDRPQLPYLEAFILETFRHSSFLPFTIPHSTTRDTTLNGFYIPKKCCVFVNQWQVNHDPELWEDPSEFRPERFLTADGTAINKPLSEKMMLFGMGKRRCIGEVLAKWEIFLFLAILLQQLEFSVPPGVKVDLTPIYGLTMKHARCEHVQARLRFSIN

STK25 = STK25 (Homo sapiens, UniProt O00506); assay: targeting of kinases (FIG. 4): STK25; format: binding
Sequence of STK25 (O00506 whole entry, species assumed): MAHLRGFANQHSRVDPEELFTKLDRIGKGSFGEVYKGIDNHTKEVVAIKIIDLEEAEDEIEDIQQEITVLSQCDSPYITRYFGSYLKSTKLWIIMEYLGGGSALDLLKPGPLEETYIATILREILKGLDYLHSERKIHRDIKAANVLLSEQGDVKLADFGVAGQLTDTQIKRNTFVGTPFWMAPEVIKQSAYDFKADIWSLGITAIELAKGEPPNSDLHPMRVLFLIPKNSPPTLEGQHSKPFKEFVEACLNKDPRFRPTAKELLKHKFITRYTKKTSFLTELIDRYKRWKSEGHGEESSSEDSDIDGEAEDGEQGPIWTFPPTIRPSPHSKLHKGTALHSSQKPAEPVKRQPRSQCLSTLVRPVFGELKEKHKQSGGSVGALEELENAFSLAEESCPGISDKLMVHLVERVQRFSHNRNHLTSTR

cytochrome P450 1A2 [21] = target: T1, cytochrome P450 1A2; assay: inhibition of cytochrome P450 1A2; format: in vitro ADME
[22] = tested on: negative cell cycle regulators p21 and p27; conditions: induces cell cycle arrest; cited from earlier work
HL-60 cells = conditions: cited from earlier work
murine cancer models = conditions: mouse, in vivo; cited from earlier work
VCAM-1 = conditions: antiangiogenic effects; cited from earlier work
[23] = tested on: hepatic cytochrome P450 (CYP); conditions: cited from earlier work
cytochrome P450 2C8 = cytochrome P450 2C8 (Homo sapiens, UniProt P10632); assay: inhibition of cytochrome P450 2C8; format: in vitro ADME
Sequence of cytochrome P450 2C8 (P10632 whole entry): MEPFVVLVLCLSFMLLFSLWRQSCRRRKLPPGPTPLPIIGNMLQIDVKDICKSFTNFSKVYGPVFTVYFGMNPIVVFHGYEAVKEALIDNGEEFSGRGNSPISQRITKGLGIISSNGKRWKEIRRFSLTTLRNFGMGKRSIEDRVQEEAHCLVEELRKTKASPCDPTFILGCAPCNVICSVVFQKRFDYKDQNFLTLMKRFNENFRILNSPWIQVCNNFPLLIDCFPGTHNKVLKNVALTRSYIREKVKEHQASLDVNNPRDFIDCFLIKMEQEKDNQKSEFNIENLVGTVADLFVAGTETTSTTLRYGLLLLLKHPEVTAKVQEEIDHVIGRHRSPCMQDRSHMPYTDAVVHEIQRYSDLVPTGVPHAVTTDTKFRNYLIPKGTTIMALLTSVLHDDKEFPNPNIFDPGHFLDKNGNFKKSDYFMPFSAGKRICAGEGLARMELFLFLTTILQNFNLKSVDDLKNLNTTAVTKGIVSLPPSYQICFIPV

[24] = cited from earlier work; remark: listed apart in the source
Lewis lung sarcoma = conditions: mouse, in vivo; cited from earlier work
K562 cells = conditions: cited from earlier work
[25] = tested on: chronic myelogenous leukemia (CML); conditions: cited from earlier work
W256 cells = conditions: cited from earlier work
[26] = rats; cited from earlier work

Sequence of cytochrome P450 2C19 (P33261 whole entry): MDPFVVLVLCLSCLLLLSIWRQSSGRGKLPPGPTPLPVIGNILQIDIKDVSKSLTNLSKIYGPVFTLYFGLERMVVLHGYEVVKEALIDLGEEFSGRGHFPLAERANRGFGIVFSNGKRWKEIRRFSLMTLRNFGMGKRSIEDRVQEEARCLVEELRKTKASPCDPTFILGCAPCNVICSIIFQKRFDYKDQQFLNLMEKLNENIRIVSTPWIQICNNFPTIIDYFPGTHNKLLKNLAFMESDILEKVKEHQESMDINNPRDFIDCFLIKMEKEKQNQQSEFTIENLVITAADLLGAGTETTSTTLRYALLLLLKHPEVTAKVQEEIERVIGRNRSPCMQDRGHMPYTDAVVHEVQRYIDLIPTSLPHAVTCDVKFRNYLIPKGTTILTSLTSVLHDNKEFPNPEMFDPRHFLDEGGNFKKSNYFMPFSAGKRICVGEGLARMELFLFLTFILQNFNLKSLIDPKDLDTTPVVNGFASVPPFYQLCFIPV

Structure (SMILES): CN1C(=O)/C(=C2/C(=O)Nc3ccccc32)c2ccccc21 [meisoindigo, 3-(1,2-dihydro-2-oxo-3H-indol-3-ylidene)-1,3-dihydro-1-methyl-2H-indol-2-one]
- metabolized by cytochrome P450 2C19 (cytochrome P450 2C19): metabolized
- efficacy in Walker 256 carcino-sarcoma [1]: effective
- human hepatic internal CL (Clint) [2]: ~83 mL/mg/kg
- water solubility [3]: water-soluble
- binding with NEK9 (NEK9): strongest binding
- Bcl-2 (primary AML cells): downregulation
- p21 (primary AML cells): upregulation
- p27 (primary AML cells): upregulation
- IC50 ([4]; cell lines and primary cancer cells): high-μM concentration range
- active against cell lines and primary cancer cells [4]: active
- binding with ERBB3 (ERBB3): significant binding
- c-myc (K562 [5]): not
- activity against U937 (U937): activity
- activity against K562 (K562 [6]): activity
- target organs [7]: liver and the gastrointestinal tract
- tubule formulation in HUVEC (HUVEC [8]): decreased
- activity against HUVEC (HUVEC [9]): activity
- inhibition of GSK-3β at [10]: 5 to 50 nM
- activity against primary AML (primary AML): activity
- Ahi-1 (Jurkat cells): upregulation
- Bcl-2 (Bcl-2): suppression
- metabolized by UGT [11]: metabolized
- efficacy in HT-29 colorectal xenografts [12]: effective
- activity against NB4 (NB4): activity
- target organs ([13]; dog): liver and the gastrointestinal tract
- well tolerated dose ([13]; dogs, p.o. for 6 months): 10 mg/kg/day
- spleen size (AML NOD/SCID model; AML NOD/SCID model): dose-dependent spleen size reduction
- efficacy in AML NOD/SCID model (AML NOD/SCID model; mouse, in vivo): effective
- activity against HL-60 (HL-60): activity
- c-myb gene expression [14]: downregulation
- differentiation [14]: promotes differentiation
- microtubule assembly (microtubule assembly): inhibition
- ECV304 apoptosis (ECV304 [15]): apoptosis
- mild nausea and vomiting ([16]; clinical trials, single agent or in combination with chemotherapy): 30%
- cardiac, hepatic, or renal adverse effects ([16]; clinical trials): no cardiac, hepatic, or renal adverse effects
- course of nausea and vomiting ([16]; clinical trials): spontaneously disappeared in two weeks
- tolerability ([16]; several patient populations): well tolerated
- killing of malignant cell lines [17]: effective in killing
- activity against ECV304 (ECV304 [18]): activity
- VEGF protection (VEGF): decreased
- cell cycle specific effect [19]: G2/M arrest
- cell cycle specific effect (AML cell lines): arrest in G(O)/G1
- Bak (AML cells): upregulation
- Bax (AML cells): upregulation
- Bax protein expression (mitochondria): no change
- Bcl-2 protein expression (mitochondria): no change
- Bid protein expression (mitochondria): no change
- cleavage of PARP (HL-60 myeloid cells): stimulates the cleavage
- cleavage of pro-caspase 3 (HL-60 myeloid cells): stimulates the cleavage
- cleavage of pro-caspase 8 (HL-60 myeloid cells): stimulates the cleavage
- cleavage of pro-caspase 9 (HL-60 myeloid cells): stimulates the cleavage
- CD11b (CD11b): upregulation
- metabolized by cytochrome P450 1A2 (cytochrome P450 1A2 [20]): metabolized
- binding with STK25 (STK25): significant binding
- inhibits cytochrome P450 1A2 at (cytochrome P450 1A2 [21]): low micromolar concentrations
- p21 [22]: upregulation
- p27 [22]: upregulation
- c-myc (HL-60 cells): decreases
- β-catenin (HL-60 cells): decreases
- efficacy in murine cancer models (murine cancer models): effective
- VCAM-1 (VCAM-1): decreased
- sex differences in metabolism [23]: no sex differences
- metabolic routes ([23]; hepatic cytochrome P450 (CYP)-mediated): N-demethylation and mono ring hydroxylation
- interspecies differences in metabolism ([23]; rats, pigs, and humans): no major interspecies differences
- inhibits cytochrome P450 2C8 at (cytochrome P450 2C8): low micromolar concentrations
- absorption ([24]; in vivo): rapidly absorbed
- distribution ([24]; in vivo): widely distributed in the tissues
- excretion ([24]; renal and biliary routes): renal excretion strongly predominating
- efficacy in Lewis lung sarcoma (Lewis lung sarcoma): effective
- apoptosis mechanism (K562 cells): novel caspase-dependent pathway
- complete hematologic response ([25]; 50-200 mg/d p.o.): 33 % of patients
- partial hematologic response ([25]; 50-200 mg/d p.o.): 58 % of patients
- reduction of leukocyte count (median) ([25]; 50-200 mg/d p.o.): 31 days
- reduction of splenomegaly (median) ([25]; 50-200 mg/d p.o.): 25 days
- effect with hydroxyurea ([25]; combination with hydroxyurea): synergistic effect
- DNA synthesis (W256 cells): inhibition
- RNA synthesis (W256 cells): inhibition
- single dose LD50 [26]: 3900 mg/kg
